Test system: T1, mushroom tyrosinase
T1 construct: mushroom tyrosinase (Sigma T-7755)
Test: Mushroom Tyrosinase Assay
Format: biochemical
Conditions: for Percent of Control: slope ΔAbs 475 nm/min vs ethanol control; for IC50: L-DOPA substrate, absorbency at 475 nm, pH 7.0, read-out: IC50 (skin lightener concentration that results in 50% tyrosinase inhibition relative to the control); for skin lightening effectiveness (tyrosinase inhibition), in words: conclusion from Tables 8 and 9
Experimental: Mushroom tyrosinase inhibition is indicative of reduction in melanin synthesis, thereby showing skin lightening effect. […] Following an initial measurement of background absorbency at 475-nm, 20 microliters of mushroom tyrosinase (Sigma T-7755; 6050 units/ml) was added and incubated at room temperature. Absorbency is read at 475-nm over the following time points: 0, 2, 4, and 6.5 minutes. The data is plotted as 475-nm absorbency vs. time (minutes) and the slope of the line is calculated (ΔAbs 475 nm/ min).

[1] = Table 9, Concentration 1 micro M
[2] = Table 9, Concentration 10 micro M
[3] = Table 9, Concentration 50 micro M
[4] = Table 9, Concentration 100 micro M

Percent of Control (Concentration 0.0156 micro M) | Percent of Control (Concentration 0.0312 micro M) | Percent of Control (Concentration 0.0625 micro M) | Percent of Control (Concentration 0.125 micro M) | Percent of Control (Concentration 0.25 micro M) | Percent of Control (Concentration 0.5 micro M) | Percent of Control (Concentration 1 micro M) | Percent of Control (Concentration 10 micro M) | Percent of Control (Concentration 50 micro M) | Percent of Control (Concentration 100 micro M) | IC50 [µM] | % of Control (Melanin Synthesis) [1] | % of Control (Melanin Synthesis) [2] | % of Control (Melanin Synthesis) [3] | % of Control (Melanin Synthesis) [4] | skin lightening effectiveness (tyrosinase inhibition), in words | skin lightening effectiveness (tyrosinase inhibition), in words (listed as 4,6-di-Isopropyl resorcinols) | SMILES
80.6% of Control | 60.9% of Control | 46.6% of Control | 35.8% of Control | 30.4% of Control | 28.7% of Control | 26.9% of Control | 28.7% of Control | 28.7% of Control | 30.4% of Control | ~0.05 | 27 % of Control | 29 % of Control | 29 % of Control | 30 % of Control | effective skin lightening compounds |  | CC(C)c1ccc(O)cc1O [4-Isopropyl Resorcinol, 4-isopropyl resorcinol]
86% of Control | 82% of Control | 72% of Control | 64% of Control | 57% of Control | 43% of Control | 32% of Control | 25% of Control | 21% of Control | 18% of Control | 0.35 | 32 % of Control | 25 % of Control | 21 % of Control | 18 % of Control |  |  | CCc1ccc(O)cc1O [4-Ethyl Resorcinol, 4-ethyl resorcinol]
 |  |  |  |  |  |  |  |  |  |  | 98 % of Control | 98 % of Control | 100 % of Control | 100 % of Control | no activity |  | Oc1cccc(O)c1 [Resorcinol, resorcinol]

The remaining lines, values behind:

SMILES | Percent of Control (Concentration 0.0156 micro M) | Percent of Control (Concentration 0.0312 micro M) | Percent of Control (Concentration 0.0625 micro M) | Percent of Control (Concentration 0.125 micro M) | Percent of Control (Concentration 0.25 micro M) | Percent of Control (Concentration 0.5 micro M) | Percent of Control (Concentration 1 micro M) | Percent of Control (Concentration 10 micro M) | Percent of Control (Concentration 50 micro M) | Percent of Control (Concentration 100 micro M) | IC50 [µM] | % of Control (Melanin Synthesis) [1] | % of Control (Melanin Synthesis) [2] | % of Control (Melanin Synthesis) [3] | % of Control (Melanin Synthesis) [4] | skin lightening effectiveness (tyrosinase inhibition), in words | skin lightening effectiveness (tyrosinase inhibition), in words (listed as 4,6-di-Isopropyl resorcinols)
Cc1cc(O)cc(O)c1C [4,5-di-Methyl Resorcinol, 4,5-dimethyl resorcinol] |  |  |  |  |  |  |  |  |  |  |  | 95 % of Control | 51 % of Control | 35 % of Control | 15 % of Control | not as effective | 
CC(C)c1cc(C(C)C)c(O)cc1O [4,6-Diisopropyl Resorcinol, 4,6-di-isopropyl resorcinol] | 96.7% of Control | 94.9% of Control | 93.1% of Control | 86.0% of Control | 75.2% of Control | 60.9% of Control | 48.4% of Control | 28.7% of Control | 34.0% of Control | 39.4% of Control | 0.75 | 48 % of Control | 29 % of Control | 34 % of Control | 39 % of Control | comparable to 4-Ethyl Resorcinol | effective skin lightening compounds
